From patent US5189044A, “Isoquinoline-1,3-dione acetyl carbamates useful as aldose reductase inhibitors” (American Home Products Corporation, priority 1992, dated 1993)

Columns and labels:
aldose reductase = details: 10^-5 M; aldose reductase from bovine lens
Protocol: (c) The polyol determination was performed by a modification of the procedure of M. Kraml and L. Cosyns, Clin. Biochem., 2,373 (1969). Only two minor reagent changes were made: (a) The rinsing mixture was an aqueous 5% (w/v) trichloroacetic acid solution and (b) the stock solution was prepared by dissolving 25 mg of dulcitol in 100 ml of an aqueous trichloroacetic acid solution. [N.B.: For each experiment the average value found in the tissue from rats fed the glucose diet was subtracted from the individual values found in the corresponding tissue in galactose-fed rats to obtain the amount of polyol accumulated.] […] In the present case the procedure of Hayman and Kinoshita was modified in that the final chromatography step was omitted in the preparation of the enzyme from bovine lens.

[1] = system: dulcitol accumulation in the diaphragm; experiment: galactosemic rats, dulcitol (galactitol) accumulation in diaphragm; format: in vivo, rat (Sprague-Dawley); details: 4 days, vs untreated galactosemic rats
Description: (§1) The aldose reductase inhibiting property of the compounds of this invention and the utilization of the compounds in preventing, diminishing and alleviating diabetic complications are demonstrable in experiments using galactosemic rats, see Dvornik et al., Science, 182, 1146 (1973). Such experiments are exemplified hereinbelow after the listing of the following general comments pertaining to these experiments:
(§2) (a) Four or more groups of six male rats, 50-70 g, Sprague-Dawley strain, were used. The first group, the control group, was fed a mixture of laboratory chow (Rodent Laboratory Chow, Purina) and glucose at 20% (w/w %) concentration. The untreated galactosemic group was fed a similar diet in which galactose is substituted for glucose. The third group was fed a diet prepared by mixing a given amount of the test compound with the galactose containing diet. The concentration of the galactose in the diet of the treated groups was the same as that for the untreated galactosemic group.
(§3) (b) After four days, the animals were killed by euthanization. The lenses were removed from the eyes and weighed. The sciatic nerves were dissected as completely as possible and weighed. Both tissues when frozen can be kept up to two weeks before being analyzed for dulcitol.
(§4) The figures under N and D represent the percentage decrease of dulcitol accumulation in the tissues of the sciatic nerve and diaphragm, respectively, for treated rats as compared to untreated rats.

[2] = system: dulcitol accumulation in the sciatic nerve; experiment: galactosemic rats, dulcitol (galactitol) accumulation in sciatic nerve; format: in vivo, rat (Sprague-Dawley); details: 4 days, vs untreated galactosemic rats
Description: as §1, §2, §3, §4

COC(=O)NC(=O)CC1C(=O)N(Cc2nc3cc(C(F)(F)F)ccc3s2)C(=O)c2ccccc21 (stereo not shown) [H]
% Inhibition in vitro (aldose reductase): 95%
% Lowering Galacitol Accumulation in Vivo, Diaphragm ([1]; 48.8 mg/kg/day in diet): 81%
% Lowering Galacitol Accumulation in Vivo, Diaphragm ([1]; 96.6 mg/kg/day in diet): 87%
% Lowering Galacitol Accumulation in Vivo, Sciatic Nerve ([2]; 48.8 mg/kg/day in diet): 61%
% Lowering Galacitol Accumulation in Vivo, Sciatic Nerve ([2]; 96.6 mg/kg/day in diet): 73%

COC(=O)NC(=O)CC1C(=O)N(Cc2nc3cc(C(F)(F)F)ccc3s2)C(=O)c2ccc(F)cc21 (stereo not shown) [F]
% Inhibition in vitro (aldose reductase): 83%
% Lowering Galacitol Accumulation in Vivo, Diaphragm ([1]; 49.3 mg/kg/day in diet): 74%
% Lowering Galacitol Accumulation in Vivo, Diaphragm ([1]; 93.6 mg/kg/day in diet): 81%
% Lowering Galacitol Accumulation in Vivo, Sciatic Nerve ([2]; 49.3 mg/kg/day in diet): 39%
% Lowering Galacitol Accumulation in Vivo, Sciatic Nerve ([2]; 93.6 mg/kg/day in diet): 59%
